{"source": "paper PMC5760651", "about": "“Peptidomimetic blockade of MYB in acute myeloid leukemia” (Nature Communications, 2018)", "key": {"MV-411 cells [1]": {"tested_on": "MV-411 cells", "assay": "MYB ChIP-seq", "assay_type": "cell-based, human", "conditions": "20 µM, 6 h, 3 biological replicates", "experimental": "ChIP was performed as previously described. Briefly, cells were fixed in 1% formalin in phosphate-buffered saline (PBS) for 10 minutes at room temperature. Glycine (125 mM final concentration) and Tris-HCl pH 8 (100 mM final concentration) were added to the cells and cells were washed twice in ice-cold PBS and resuspended in sodium dodecyl sulfate (SDS) lysis buffer (1% SDS, 10 mM EDTA, 50 mM Tris–HCl, pH 8.1). Lysates were sonicated using the Covaris S220 adaptive focused sonicator to obtain 100–500 bp chromatin fragments (Covaris, Woburn, CA). Lysates containing sheared chromatin fragments were resuspended in 0.01% SDS, 1.1% Triton-X100, 1.2 mM EDTA, 16.7 mM Tris–HCl, pH 8.1,167 mM NaCl. Lysates and antibody-coupled beads were incubated over night at 4 °C. […] Libraries were sequenced on the Illumina HiSeq 2500 instruments, with 30 million 2 × 50 bp paired reads.\nFor ChIP-seq analysis, reads were quality and adapter trimmed using ‘trim_galore’ before aligning to human genome assembly hg19 with bwa mem using the default parameters. Aligned reads with the same start position and orientation were collapsed to a single read before subsequent analysis. Density profiles were created by extending each read to the average library fragment size and then computing density using the BEDTools suite. Enriched regions were discovered using MACS 2.0 and scored against matched input libraries. […]"}, "AML cells": {"tested_on": "AML cells", "assay": "Flow cytometry of differentiation markers", "assay_type": "cell-based, human", "experimental": "(§1) Cells were resuspended to a concentration of 1 × 10^6 cells were plated in triplicate in a 12-well tissue culture plate. For assessment of annexin V staining, cells were washed with PBS and then resuspended in PBS with Annexin V-APC (BioLegend) and propidium iodide at a dilution of 1:1000. For intracellular detection of cleaved caspase 3, cells were fixed and permeabilized using the BD Cytofix/Cytoperm Fixation/Permeabilization solution according to the manufacturer’s instructions (BD Biosciences). Cells were then stained using the Alexa Fluor 647-conjugated anti-active caspase-3 (BD Biosciences) at a dilution of 1:50. Cells were incubated for 30 minutes room temperature in the dark, washed, and then analyzed using the BD LSRFortessa cell analyzer. For assessment of differentiation, cells were stained using the anti-human CD14 PE at a dilution of 1:20 (Affymetrix eBiosciences) and anti-human CD66b at a dilution of 1:20 (Affymetrix eBiosciences)."}, "MOLM-13 cells": {"tested_on": "MOLM-13 cells", "assay": "RNA-seq transcriptome profiling", "assay_type": "cell-based, human", "conditions": "MOLM13 cells, 20 µM, 6 h", "experimental": "Reads were quality and adapter trimmed using “trim_galore” before aligning to human assembly hg19 with STAR v2.5 using the default parameters. Coverage and post-alignment quality were assessed using the Picard tool CollectRNASeqMetrics (http://broadinstitute.github.io/picard/). Read count tables were created using HTSeq v0.6.1. Normalization and expression dynamics were evaluated with DESeq2 using the default parameters."}, "MV-411 cells [2]": {"tested_on": "MV-411 cells", "assay": "Flow cytometric analysis of apoptosis", "assay_type": "cell-based, human", "conditions": "20 μM, 24 h, flow cytometry, p = 5.4e-3", "experimental": "as §1"}, "C57BL/6J mice": {"tested_on": "C57BL/6J mice", "assay": "Peripheral blood counts after 7 days of treatment", "assay_type": "in vivo, mouse", "conditions": "25 mg/kg IP daily", "experimental": "All mouse experiments were carried out in accordance with the Memorial Sloan Kettering Institutional Animal Care and Use Committee. For toxicity studies, female C57BL/6J mice (The Jackson Laboratory, Bar Harbor, Maine, USA) were treated with MYBMIM peptide suspended in PBS and administered daily through intraperitoneal injection at a dose of 25 mg/kg for a total of 7 days. Mice were sacrificed at the end of treatment for hematologic, biochemical and histologic analyses. For pharmacokinetic studies, C57BL/6J mice (The Jackson Laboratory, Bar Harbor, Maine, USA) were treated with a single IP injection of 25 mg/kg BIO-MYBMIM, and blood plasma was collected 30 min, 2 h, 4 h, and 24 h post-injection. Quantification of BIO-MYBMIM was measured using the Quant-Tag Biotin kit (Vector Labs, cat. # BDK-2000) following the manufacturer instructions. For patient-derived xenografts, two hundred thousand primary AML MLL-rearranged leukemia cells were suspended in […] of PBS and transplanted via tail vein injection into 8-week-old sublethally irradiated (200 rad) female NOD.Cg-Prkdc(scid)Il2rg(tm1Wjl)/SzJ mice (The Jackson Laboratory, Bar Harbor, Maine, USA). […] Mice were treated from days 3–17 of this study for a total of 14 days and then monitored daily with clinical examination for survival analysis."}}, "note": "Non-standard residues stand in square brackets, D forms with d. Residues, ends and D or L forms follow the SMILES beside them."}
{"smiles": "CC[C@@H](C)[C@@H](NC(=O)[C@@H](CCCCN)NC(=O)[C@@H](CCC(=O)O)NC(=O)[C@@H](CC(C)C)NC(=O)[C@@H](CCC(=O)O)NC(=O)[C@@H](CC(C)C)NC(=O)[C@@H](CC(C)C)NC(=O)[C@@H](CC(C)C)NC(=O)[C@@H](CCSC)NC(=O)[C@@H](CO)NC(=O)[C@H](NC(=O)[C@@H](CCC(=O)O)NC(=O)[C@@H](CC(N)=O)NC(=O)[C@@H](CCC(=O)O)NC(=O)[C@@H](CC(C)C)NC(=O)[C@@H](CCCCN)NC(C)=O)[C@H](C)O)C(=O)N[C@H](CCCNC(=N)N)C(=O)N[C@H](CCCCN)C(=O)NCC(=O)NCC(=O)N[C@H](CCCNC(=N)N)C(=O)N[C@H](CCCNC(=N)N)C(=O)N[C@H](CCCNC(=N)N)C(=O)N[C@H](CCC(N)=O)C(=O)N[C@H](CCCNC(=N)N)C(=O)N[C@H](CCCNC(=N)N)C(=O)N[C@H](CCCCN)C(=O)N[C@H](CCCCN)C(=O)N[C@H](CCCNC(=N)N)C(=O)NCC(=O)N[C@H](Cc1ccc(O)cc1)C(N)=O", "note": "[MYBMIM] (Ac-[dK][dL][dE][dN][dE][dT][dS][dM][dL][dL][dL][dE][dL][dE][dK][dI][dR][dK]GG[dR][dR][dR][dQ][dR][dR][dK][dK][dR]G[dY]-NH2)", "values": [{"measurement": "MYB complexes bound to promoters and enhancers eliminated", "setting": "MV-411 cells [1]", "result": "2,690"}, {"measurement": "CD14, CD66b and CD11b expression", "setting": "AML cells", "result": "no significant changes"}, {"measurement": "BCL2, MYC, GFI1, MTL5, IKZF1 gene expression", "setting": "MOLM-13 cells", "result": "significant downregulation"}, {"measurement": "Apoptosis by cell surface annexin V and intracellular caspase 3 cleavage", "setting": "MV-411 cells [2]", "result": "significant apoptosis"}, {"measurement": "Peripheral blood counts (total leukocytes, lymphocytes, platelets, blood hemoglobin)", "setting": "C57BL/6J mice", "result": "no significant changes"}]}
